The text below walks through data of patent US12128015B2, “APE/REF1 inhibitors for the treatment of cancer” (Chapman University, priority 2021, dated 2024).

Molecules are shown by their SMILES. Entries after “also recorded” stand apart in the source; their conditions may differ. Read-outs that look alike come from different tables or passages of the source.

The subject of one series is HT1080 cells. The following applies: cited from earlier work.
In series [1] the test system is human melanoma A375 and SK-Mel-28 cells. In words: MTT cytotoxicity in human melanoma A375 and SK-Mel-28 cells (Table 1). The following applies: for IC50: read-out: IC50 (50% inhibition of cell survival), MTT assay; for anti-melanoma activity (MTT): in words. Type of series: cell-based. An excerpt: (§1) All the cells were passaged once reaching 70-90% confluence.
(§2) (MTT) metabolized by alive cells.

The subject of series [2] is Hermes 3A melanoblast cells. Put plainly: MTT cell viability assay, Hermes 3A melanoblast cells. Type of series: cell-based, human. Conditions: 72 h treatment.
Text: as §2
(In general: Tetrazolium assays rely on reduction of a dye to a coloured formazan, in cell work by metabolically active cells.)

Series [3] has as its system Hermes 4A melanoblast cells. In words: MTT cell viability assay, Hermes 4A melanoblast cells. The following applies: 72 h treatment. Type of series: cell-based, human.
Text: as §2

A further series has as its system AP-1 transactivation. In words: Luciferase assay to determine AP-1 transactivation activities in A375 cells. Conditions: for inhibition of H2O2-activated AP-1 transactivation: compound 10 μM. Type of series: cell-based, human. An excerpt:
FIG. 3. Inhibition of AP-1 transcriptional activation in human melanoma A375 cells by compound 2. A375 cells were transfected with an AP-1 luciferase reporter plasmid. […] After treatments, the cells were harvested to determine the luciferase activity, expressed as a fold of control without any treatment. The results normalized by cell numbers represent means±S.D of triplicates. *, p<0.05 compared to control; **, p<0.05 compared to H2O2-treatment.
3×AP1pGL3 (3×AP-1 in pGL3-basic; Addgene plasmid #40342), which contains three canonical AP-1 binding sites (TGACTCA) upstream of a minimal promoter fragment containing a TATA box in the luciferase reporter plasmid pGL3-basic. 3×AP1pGL3 was transfected to human melanoma A375 cells using Lipofectamine 2000 following the manufacturer's instructions (Invitrogen). […]
After different treatments, the cells were rinsed twice with phosphate-buffered saline (PBS). Cells were then scraped from the plates in PBS and pelleted for 4 min at 4° C. in a microcentrifuge at 12,000 rpm. Cell pellets were resuspended in 100 μL luciferase lysis buffer for luciferase assay as described (Promega). Luciferase activity measured in relative light units reflects the AP-1 transcription rate and was detected by a SpectraMax M5 UV VIZ Plate Reader. Cell count was conducted for normalization. All the samples were studied in duplicate, and readings were taken in triplicate. Each experiment was repeated at least two times.

Series [4] concerns A375 metastatic melanoma xenograft. Put plainly: In vivo xenograft melanoma (A375 cells in nude mice). The procedure: FIG. 4. Compound 2 inhibited the tumor growth of human melanoma in vivo. Metastatic melanoma A375 cells were injected into male nude mice subcutaneously on the flank. Compound 2 was administered i.p. daily at the dose of 5 mg/kg. The growth of the tumor was measured daily, and tumor volume was measured by digital calipers and determined using the formula (mm^3)=[L×(W2)]/2. Tumor growth was presented as a fold of increase in size (mean±SD). *, p<0.05 compared to control (N=7; Compound 2 group, N=5).
The Institutional Animal Care and Use Committee approved all the animal procedures at Chapman University (IACUC #2020-1131). Male nude mice (Nu/Nu) were purchased from Charles River and were housed and maintained in the Chapman University vivarium under pathogen-free conditions. Human A375 metastatic melanoma cells were injected subcutaneously into the mouse's flank (1×10^6 cells per mouse). Three days-post tumor cell injection, mice were randomized into different groups. The treatment group was injected with compound 2 (5 mg/kg/day, i.p.) for 21 days. The growth of the tumors was monitored three times a week and measured using digital Vernier calipers. The size of the tumors was calculated as tumor volume (mm^3)=[L×(W2)]/2. The mice were sacrificed at the end of the experiment.
(§3) Given the limited water solubility, lead compound 2 (in DMSO) was further diluted in normal saline, the drug suspension, and sonicated at room temperature for 15 min. before injection to nude mice. […] The drug suspension was made fresh daily and injected into mice immediately after the compounding.

The nature of series [5]: HPLC analysis of the drug suspension after compounding. Type of series: physicochemical. The following applies: DMSO solution diluted in normal saline, sonicated 15 min at room temperature. The procedure: as §3
Series [6] relates to Hermes 1 melanoblast cells. Conditions: 72 h.
The subject of a further series is A375 melanoma cells. Put plainly: MTT cell viability assay, A375 melanoma cells. The following applies: for cell viability: 1 μM, A375 cells (FIG. 2C), control = vehicle 0.1% DMSO. Type of series: cell-based, human.
Text: as §1, §2

Series [7] can be described thus: Water solubility: drug precipitation in the media. Type of series: physicochemical.
Another series concerns Sk-Mel-28 melanoma cells. Conditions: read-out: IC50, cell viability; Sk-Mel-28 cells, MTT, 72 h.
Series [8] concerns human breast cancer cells. The following applies: collective cell migration; chemo-invasion and colony formation with docetaxel; cited from earlier work.
The conditions of series [9]: Phase I trial, cited from earlier work.
The subject of a further series is melanoma cell lines. Put plainly: Toxicity of PNRI-299 in the inventors' tested melanoma cell lines. Type of series: cell-based.
[10] abbreviates: 72 h, human melanoma A375 and SK-Mel-28 cells (compound 11: average of the two lines).

Description for Sk-Mel-28 melanoma cells: Human malignant melanoma cells (A375, CRL-1619™; Sk-Mel-28, HTB-72™) were purchased from ATCC®. Cells were cultured in Dulbecco's Modified Eagle Medium (DMEM) (ATCC #30-2002) or Eagles' Minimum Essential Medium (EMEM) (ATCC #30-2003) supplemented with 10% fetal bovine serum (FBS) (ATCC #30-2020) at 37° C. in 5% CO2 incubator. All the cells were passaged once reaching 70-90% confluence.

On to `O=C(O)c1cc2cccc([N+](=O)[O-])c2[nH]1` [CRT0044876], for which, in the series on HT1080 cells (HT1080 cells, CRT0044876 alone), the “concentration up to which no toxicity was seen” value is above 400 µM. For the same compound, the “concentration at which synergistic enhancement of methyl methanesulphonate cytotoxicity was evident” value with HT1080 cells is 200 µM.
Take `O=C(/C=C/c1ccccc1)NCCCCCCCCCCCCNC(=O)/C=C/c1ccccc1` [Compound 2, (2E,2′E)-N,N′-(Dodecane-1,12-diyl)bis(3-phenylacrylamide)]: in [1] (MTT, 72 h), the “dose dependence of cytotoxicity” value is “Cytotoxicity is not dose-”. In addition, the cytotoxicity entry in [2] is on record as “no significant cytotoxicity”; in series [3] it was “no significant cytotoxicity”; in series [6] (human), “more sensitive to compound 2, but the cytotoxicity was not elevated with increasing the concentrations”. Also, the “H2O2-activated AP-1 activity (luciferase)” value with AP-1 transactivation (compound 0.5 μM, H2O2 100 μM, 48 h, H2O2 alone 2.3-fold of control) is on record as 95.7 % of control. In addition, the “inhibition of basal AP-1 dependent transcription” value in the series with AP-1 transactivation (without H2O2) is “did not display any inhibition”. The tumor size in series [4] (5 mg/kg i.p. daily, after 21-day treatment, nude mice) is reported as 44.7 % of control. Further, the systemic toxicity entry in series [4] (5 mg/kg i.p. daily, nude mice) is “without producing any apparent systemic toxicities; also recorded: no significant systemic toxicity observed”. In series [4] (5 mg/kg i.p., xenograft mouse model), the “tumor growth inhibition compared to the control group” value is 44.7%. For the same compound, the “chemical stability after compounding” value in series [5] is reported as “no evidence of chemical structural change after compounding”.
Turning to `O=C(/C=C/c1ccc(O)cc1)NCCCCCCCCCCCCNC(=O)/C=C/c1ccc(O)cc1` [Compound 4], the IC50 (as a rule, the concentration that gives 50% inhibition) in [1] (setting [10]) was above 10000 nM. The “anti-melanoma activity (MTT)” value in series [1] is “significant loss of anti-tumor activity compared to compound 2”.
Take `O=C(/C=C/c1ccc(O)cc1)NCCCCCCNC(=O)/C=C/c1ccc(O)cc1` [Compound 5, (2E,2′E)-N,N′-(Hexane-1,6-diyl)bis(3-(4-hydroxyphenyl)acrylamide)]: the 50% inhibitory concentration (IC50) in series [1] (Homo sapiens, 72 h) is above 50000 nM. Moreover, the “anti-melanoma activity (MTT)” value in [1] is given as “loss of anti-melanoma activity compared to compound 2”.
For `O=C(/C=C/c1cccc(O)c1)NCCCCCCCCCCCCNC(=O)/C=C/c1cccc(O)c1` [Compound 7, (2E,2′E)-N,N′-(dodecane-1,12-diyl)bis(3-(3-hydroxyphenyl)acrylamide)], the IC50 in series [1] (Homo sapiens, 72 h) is above 10000 nM. Moreover, in [1], the “anti-melanoma activity (MTT)” value is “significant loss of anti-tumor activity compared to compound 2”.
In the case of `NCCCCCCCCCCCCNC(=O)/C=C/c1cccc(O)c1` [Compound 8, (E)-N-(12-Aminododecyl)-3-(3-hydroxyphenyl) acrylamide], the half-inhibitory concentration (IC50) in [1] (Homo sapiens, 72 h) is above 25000 nM.
With `O=C(/C=C/c1ccccc1)NCCCCCCCCCCCCNC(=O)/C=C/c1cccc(O)c1` [Compound 9, (E)-N-(12-Cinnamamidododecyl)-3-(3-hydroxyphenyl) acrylamide], in [1] (Homo sapiens, 72 h), the half-maximal inhibitory concentration (IC50) is above 10000 nM. In addition, the “anti-melanoma activity (MTT)” value in [1] was “poor anti-melanoma activity”.
With `NCCCCCCCCCCCCNC(=O)C=Cc1ccccc1` [Compound 10, N-(12-Aminododecyl)cinnamamide], the half-inhibitory concentration (IC50) in [1] (Homo sapiens, 72 h) is above 25000 nM.
As for `O=C(C=Cc1ccccc1)NCCCCCCCCCCCCNC(=O)/C=C/c1ccc(O)cc1` [Compound 11, (E)-N-(12-Cinnamamidododecyl)-3-(4-hydroxyphenyl) acrylamide], the cell viability in the series with A375 melanoma cells is 19 % of control. The IC50 came to 88 nM with A375 melanoma cells (A375 cells, MTT, 72 h); 79 ± 13 nM in series [1] (setting [10]); 70 nM in the series with Sk-Mel-28 melanoma cells; 274 nM in series [6] (read-out: IC50, cell viability, Hermes 1 melanoblast cells, MTT). Also, in series [1], the “anti-melanoma activity (MTT)” value is “potent cytotoxic effect”. Besides, the “inhibition of H2O2-activated AP-1 transactivation” value in the series on AP-1 transactivation (H2O2 100 μM, 48 h) is recorded as “failed to inhibit”. Besides, in [7], the “precipitation concentration relative to compound 2” value was “approximately 8 folds”. The “water solubility and stability” value in series [7] (compared to compound 2) is “improved water solubility and stability compared to compound 2”. Further, the “concentration at which drug precipitation was evident” value in [7] (in the media) is -20 µM.
As for `O=C(/C=C/c1ccccc1)NCCCCCCNC(=O)/C=C/c1ccccc1` [Compound 12, (2E,2′E)-N,N′-(hexane-1,6-diyl)bis(3-phenylacrylamide)], the 50% inhibitory concentration (IC50) in series [1] (Homo sapiens, 72 h) is above 10000 nM.
As for `CCCCCCCCC/C(=C\C1=C(C)C(=O)C(OC)=C(OC)C1=O)C(=O)O` [Compound E3330], in the series on A375 melanoma cells, the cell viability is 102.6 % of control. For the same compound, the “inhibition of H2O2-activated AP-1 transactivation” value with AP-1 transactivation (H2O2 100 μM, 48 h) is recorded as “only reduced the AP-1 activity marginally, which was not statistically significant”. The “concentration at which inhibitory activity was evident” value in [8] was 50 µM. Also, the “patients with disease stabilization for ≥4 cycles” value in series [9] (cancer patients) was “six of nineteen”. Moreover, in series [9], the “duration of treatment with stable disease, one melanoma patient” value is 245 days.
As to `N#Cc1cccc(-n2c(=O)n3n(c2=O)C(C(=O)NCc2ccccc2)=CC(=O)C3)c1` [PNRI-299], the “concentration up to which neither toxicity nor synergistic effects were observed” value with melanoma cell lines was above 100 µM.
